The record followed here is PubChem BioAssay AID1890 (The Scripps Research Institute Molecular Screening Center, 2009).

The source made the active and inactive calls. How the calls were made is not given here.

The assay addresses Replicase polyprotein 1ab (Severe acute respiratory syndrome coronavirus) (UniProt P0C6X7). As to the kind of experiment: SARS 3CLpro cleavage inhibition IC50 – biochemical, quenched FRET, dose response (AID 1890). The note with it: purified 3CLpro, quenched FRET peptide cleavage.
As for `O=C(CSc1ccccn1)Nc1nonc1[N+](=O)[O-]`, the IC50 (commonly the concentration that gives 50% inhibition) is 7.07 µM.

Take `O=C(/C=C/c1ccccc1Cl)Nc1cccnc1`: the IC50 result was “inactive”.

As to `O=C(/C=C/c1ccc(Cl)c([N+](=O)[O-])c1)NCc1cccnc1`, the IC50 entry is “inactive”.

With `CC(C)C[C@H](NC(=O)c1nc[nH]c1C(=O)NCc1ccc(CNC(=O)OC(C)(C)C)cc1)C(=O)OC(C)(C)C`, the IC50 is > 59.6 µM (inactive).

For the compound `COc1cccc(C(C(=O)NCC2CCCO2)N(C(=O)Cn2nnc3ccccc32)c2ccc(NC(C)=O)cc2)c1` (configuration not stated), the IC50 result is “inactive”.

`O=C(Cn1nnc2ccccc21)c1ccc(Cl)cc1`: the IC50 was 9.91 µM.

Regarding `O=C1C(=O)N(CC2COc3ccccc3O2)c2ccccc21` (configuration not stated), the IC50 entry was “inactive”.

As for `O=C(c1cc(=O)[nH]c2ccccc12)N1CCN(c2ccccc2)CC1`, the IC50 is 9.95 µM.

Take `CCC(C)(C)NC(=O)C(c1cccn1C)N(C(=O)Cn1nnc2ccccc21)c1ccc(NC(C)=O)cc1` (configuration not stated): the IC50 was 6.29 µM.

Consider `NC(=O)CCn1c(C(=O)c2cccc([N+](=O)[O-])c2)c2ccccc2[n+]1[O-]`, for which the IC50 result was “inactive”.

Take `O=C(N/N=C\c1c(O)ccc2ccccc12)c1cncc(Br)c1`: the IC50 entry is “inactive”.

Take `Cc1cc(C(=O)CCl)c(C)n1-c1cccc([N+](=O)[O-])c1`: the IC50 is 4.59 µM.

For `O=C1C(=O)N(C/C=C/c2ccccc2)c2ccccc21`, the IC50 result is “inactive”.

With `Cc1cc(=O)oc2cc(OC(=O)c3ccco3)ccc12`, the IC50 was 3.34 µM.

Turning to `Cc1ccc(/C=C/C(=O)c2cc(Br)ccc2OC(=O)c2ccco2)cc1`, the IC50 entry is “inactive”.

As for `COc1ccc2c(c1)C(=O)C(=O)N2CC1COc2ccccc2O1` (configuration not stated), the IC50 is 9.74 µM.

`COc1ccc(N(Cc2cc(=O)[nH]c3ccccc23)C(=O)CCl)cc1`: the IC50 result was “inactive”.

As for `COc1cc(C2CC(c3cccs3)=NN2C(=O)CCl)ccc1OC(F)F` (configuration not stated), the IC50 is 2.8 µM.

Turning to `CCc1nc(N2CCN(C(=O)CCl)CC2)c2c3c(sc2n1)CC(C)CC3` (configuration not stated), the IC50 is 4.23 µM.

Turning to `CCc1ccc2c(c1)C(NC(C)=O)C(=O)N2CCN1CCOCC1` (configuration not stated), the IC50 is 6.56 µM.

`O=C1C(=O)N(CCCc2ccccc2)c2ccccc21`: the IC50 result was “inactive”.

Take `COC(=O)c1ccc(OC(=O)CN2C(=O)c3ccccc3C2=O)cc1`: the IC50 was > 59.6 µM (inactive).

In the case of `COc1ccc(C(=O)n2c(SC)nc3cc4c(cc32)OCCO4)cc1`, the IC50 is 1.08 µM.

Turning to `Cn1cnc2cc(NC(=O)c3ccc(Cl)cc3)ccc21`, the IC50 result is “inactive”.

Turning to `CCC(C)c1ccc(N(C(=O)c2ccco2)C(C(=O)NC2CCCC2)c2cccnc2)cc1` (configuration not stated), the IC50 was 2.23 µM.

Take `Cc1ccc(C(=O)O)cc1NC(=S)NC(=O)c1ccc(COc2ccccc2)cc1`: the IC50 was > 59.6 µM (inactive).

Turning to `CCC(C)(C)NC(=O)C(c1ccc(O)cc1)N(C(=O)Cn1nnc2ccccc21)c1ccc(NC(C)=O)cc1` (configuration not stated), the IC50 result was “inactive”.

With `O=C(Nc1ccc(OCC(F)(F)C(F)F)c(C(F)(F)F)c1)c1ccccc1O`, the IC50 was > 59.6 µM (inactive).

Take `O=C(Oc1ccc(Cl)cc1N1C(=O)CCC1=O)c1ccco1`: the IC50 entry is “inactive”.

`CC(C)C12CN(C(=O)c3ccccc3[N+](=O)[O-])CC(C(C)C)(CN(C(=O)c3ccccc3[N+](=O)[O-])C1)C2=O`: the IC50 result was “inactive”.

In the case of `CC(=O)c1cc(-c2ccccc2)[nH]c1N1CCCC1`, the IC50 is 4.63 µM.

With `CCn1nc(-c2ccccc2)nc2c(=O)n(C)c(=O)nc1-2`, the IC50 was > 59.6 µM (inactive).

With `CC1CCC2C(=O)N(c3cc(Cl)ccc3OC(=O)c3ccco3)C(=O)C2C1` (configuration not stated), the IC50 was 5.39 µM.

For `COc1ccc(C(C(=O)NCC2CCCO2)N(C(=O)Cn2nnc3ccccc32)c2ccc(NC(C)=O)cc2)cc1` (configuration not stated), the IC50 was 9.35 µM.

`O=C(Oc1ccc(Br)cc1C(=O)/C=C/c1ccccc1F)c1ccco1`: the IC50 is 7.12 µM.

For `O=C(/C=C/c1cccs1)Nc1scc(-c2ccccc2)c1C(=O)O`, the IC50 is 5.22 µM.

In the case of `COc1ccc2cc(C3(C)NC(=O)N(CC(=O)NCc4ccco4)C3=O)ccc2c1` (configuration not stated), the IC50 result was “inactive”.

Consider `CCCCOc1ccc(C(=O)Oc2cccnc2)cc1`, for which the IC50 is > 59.6 µM (inactive).

As for `CC(=O)NC1C(=O)N(CCN2CCOCC2)c2ccc(F)cc21` (configuration not stated), the IC50 was 9.1 µM.

Consider `CC1(C)C2CC=C(/C=N/NC(=S)Nc3cccnc3)C1C2` (configuration not stated), for which the IC50 was > 59.6 µM (inactive).

Turning to `CC(=O)Nc1ccc(N(C(=O)Cn2nnc3ccccc32)C(C(=O)NC2CCCC2)c2ccc(O)c(O)c2)cc1` (configuration not stated), the IC50 entry is “inactive”.

`COc1ccccc1OCCNC(=O)c1cc(=O)[nH]c2ccccc12`: the IC50 is 3.6 µM.

`COc1ccc(N(C(=O)Cn2nnc3ccccc32)C2(C(=O)NC3CCCC3)CCCCC2)cc1`: the IC50 was 7.89 µM.

For `O=C(/C=C/c1c(F)cccc1Cl)Nc1cccnc1`, the IC50 result is “inactive”.

In the case of `Cc1ccc(C(=O)Oc2ccc3c(c2)ncn3C)cc1`, the IC50 entry is “inactive”.

With `CCc1cc(=O)oc2cc(OC(=O)c3ccco3)ccc12`, the IC50 is 2.96 µM.

With `O=C(O)c1[nH]c2ccccc2c1C(c1cc(Br)ccc1O)c1c(C(=O)O)[nH]c2ccccc12`, the IC50 is > 59.6 µM (inactive).

On to `N#CCC(=O)N/N=C/c1c(-c2ccccc2)n(-c2ccccc2)c2ccccc12`, for which the IC50 was > 59.6 µM (inactive).

`Cc1ccc(C(=O)c2c3ccc(C(F)(F)F)cc3[n+]([O-])n2CCC(N)=O)cc1`: the IC50 entry is “inactive”.

Regarding `Cc1ccc(C2=NN(C(=O)CCl)C(c3ccco3)C2)o1` (configuration not stated), the IC50 was 5.2 µM.

As for `Nc1ncc(Br)cc1S(=O)(=O)Nc1cc(C(F)(F)F)cc(C(F)(F)F)c1`, the IC50 is > 59.6 µM (inactive).

Turning to `CC(=O)c1c(OC(=O)c2ccco2)c2ccccc2n1C`, the IC50 result was “inactive”.

As to `NC(=O)CCn1c(C(=O)c2ccc(Cl)cc2)c2ccccc2[n+]1[O-]`, the IC50 was 4.88 µM.

Turning to `Cc1cc(=O)oc2cc(NC(=O)Cc3ccccc3[N+](=O)[O-])ccc12`, the IC50 was > 59.6 µM (inactive).

As for `Cc1cc(NC(=O)COn2nnc3ccc(S(C)(=O)=O)cc32)ccc1Br`, the IC50 entry is “inactive”.

Regarding `Cc1cc(C)c(C)c(S(=O)(=O)N2CCN(C(=O)c3cc(=O)[nH]c4ccccc34)CC2)c1C`, the IC50 was 4.83 µM.

With `NC(=O)CCn1c(C(=O)c2cc(Cl)c(N)c(Cl)c2)c2ccccc2[n+]1[O-]`, the IC50 is 9.81 µM.

On to `CN(C)S(=O)(=O)c1cccc(NC(=O)CSc2cccc3cccnc23)c1`, for which the IC50 entry is “inactive”.

Regarding `O=c1[nH]c(=O)n(-c2ccccc2F)c(O)c1/C=C1\C=Nc2ccccc21`, the IC50 is 9.47 µM.

For the compound `COc1cc(/C=N\NC(=O)Cn2nnc3ccccc32)cc(OC)c1OC`, the IC50 was 5.18 µM.

For `O=C(Cc1ccc(Cl)c(Cl)c1)Nc1cccnc1`, the IC50 result is “inactive”.

For the compound `COc1cccc(C(C(=O)NCc2ccco2)N(Cc2ccco2)C(=O)Cn2nnc3ccccc32)c1` (configuration not stated), the IC50 is 7.76 µM.

Take `Cc1sc(NC(=O)CCl)c(C(=O)c2ccccc2)c1C`: the IC50 entry is “inactive”.

With `Cc1cccc(N2CCN(C(=O)c3cc(=O)[nH]c4ccccc34)CC2)c1C`, the IC50 is 6.66 µM.

With `COc1ccccc1/C=C/C(=O)c1cc(Br)ccc1OC(=O)c1ccco1`, the IC50 was 8.94 µM.

For the compound `C[C@@]12C(=O)N(c3cccc(Br)c3)C(=O)N1[C@H](c1ccc(Cl)cc1)[C@@H]1C(=O)N(C3CCCCC3)C(=O)[C@@H]12`, the IC50 was > 59.6 µM (inactive).

Turning to `O=C(Cn1nnc2ccccc21)c1ccc(Br)cc1`, the IC50 was 4.01 µM.

Turning to `Cc1ccc(C(=O)n2cnc3ccccc32)cc1C`, the IC50 result was “inactive”.

Consider `Cc1ccc(C2CC(c3cccs3)=NN2C(=O)CCl)cc1` (configuration not stated), for which the IC50 was 4.19 µM.

Turning to `O=C(c1cc(=O)[nH]c2ccccc12)N1CCN(c2cccc(C(F)(F)F)c2)CC1`, the concentration for half-maximal inhibition (IC50) was 5.1 µM.

Turning to `O=C(OCC(=O)N1c2ccccc2Sc2ccccc21)c1cccnc1`, the IC50 result is “inactive”.

With `COc1cc2c(cc1OC)C(c1cc(Br)ccc1F)N(C(=O)CCl)CC2` (configuration not stated), the IC50 was 9.88 µM.

On to `Cc1cc(NC(=O)COC(=O)C(Nc2ccc(C(F)(F)F)cc2Cl)C(C)C)no1` (configuration not stated), for which the IC50 was > 59.6 µM (inactive).

As for `CC(C)c1ccc(N(C(=O)c2ccco2)C(C(=O)NC2CCCC2)c2cccnc2)cc1` (configuration not stated), the IC50 is 5.93 µM.

With `Cc1ccc2[nH]c3c(c2c1)CN(C(=O)CN1c2ccc(F)cc2CCC1C)CC3` (configuration not stated), the IC50 result was “inactive”.

Turning to `O=C(Oc1cccnc1)c1ccc(Cl)cc1`, the half-maximal inhibitory concentration (IC50) is 6.31 µM.

With `CCc1cccc(CC)c1N(COC)C(=O)Cn1nnc2ccccc21`, the IC50 entry was “inactive”.

With `Cc1ccc(C(=O)c2c3ccccc3[n+]([O-])n2CCC(N)=O)cc1`, the IC50 is 9.36 µM.

`Cc1nnc(SC(=O)N2c3ccccc3Sc3ccccc32)s1`: the IC50 entry was “inactive”.

Take `O=C(CCl)N(CCc1ccccc1)CCc1ccccc1`: the IC50 entry was “inactive”.

Turning to `Cc1cc(C)c(N(C(=O)Cn2nnc3ccccc32)C(C(=O)NC(C)(C)C)c2ccsc2)c(C)c1` (configuration not stated), the 50% inhibitory concentration (IC50) is 2.9 µM.

For `Cc1ccc(-c2cc(NC(=O)c3ccccc3[N+](=O)[O-])n[nH]2)cc1`, the IC50 entry was “inactive”.

Turning to `Cc1cccc2c1N(CCOc1ccccc1)C(=O)C2=O`, the IC50 entry was “inactive”.

Take `COc1cccc(/C=N/NC(=S)Nc2cccnc2)c1`: the IC50 entry was “inactive”.

Take `COc1ccc(C2CC(c3cccs3)=NN2C(=O)CCl)cc1OC` (configuration not stated): the IC50 is 2.3 µM.

As to `O=Cc1cn(Cc2ccccc2)nc1-c1cccnc1`, the IC50 was 7.21 µM.

Regarding `CCN(CC)C(=O)Cn1cc(/C=C2\C(=O)NC(=O)N(c3ccccc3F)C2=O)c2ccccc21`, the IC50 result is “inactive”.

Regarding `Cn1nc(-c2ccc(Cl)cc2)nc2c(=O)n(C)c(=O)nc1-2`, the IC50 was > 19.9 µM (inactive).

For the compound `COc1ccc(C2C(O)C(c3c[nH]c4ccccc34)=NN2C(=O)CCl)cc1` (configuration not stated), the IC50 is 3.58 µM.

As for `Cc1cc(C)n(C(=O)c2ccc(C)c(Br)c2)n1`, the IC50 result was “inactive”.

Take `COc1ccc(C(=O)Oc2cccnc2)cc1`: the IC50 is > 59.6 µM (inactive).

Take `COc1cccc(C(C(=O)Nc2ccc(F)cc2)N(C(=O)Cn2nnc3ccccc32)C2CC2)c1` (configuration not stated): the IC50 entry was “inactive”.
